From US20100273769A1, “COMPOSITION AND METHOD FOR THE TREATMENT OF PARKINSON'S DISEASE” (priority 2009, published 2010)
Read-outs that look alike come from different tables or passages of the source.

What was measured:
Cdk1 = Cdk1 (Homo sapiens, UniProt P06493); assay: Kinase specificity, Cdk1; assay type: biochemical; conditions: 100 μM ATP
ERK2 = ERK2 (Homo sapiens, UniProt P28482); assay: Kinase specificity, ERK2; assay type: biochemical; conditions: 100 μM ATP
wildtype human LRRK2 = target: T1, wildtype human LRRK2 (Homo sapiens, UniProt Q5S007); assay: Adapta assay, inhibition of wildtype human LRRK2 kinase fragment with LRRKtide; assay type: biochemical
T1 construct: human LRRK2 protein fragment encompassing amino acids 1326 to 2527; GST; made in house
T1 sequence (Q5S007 1326-2527): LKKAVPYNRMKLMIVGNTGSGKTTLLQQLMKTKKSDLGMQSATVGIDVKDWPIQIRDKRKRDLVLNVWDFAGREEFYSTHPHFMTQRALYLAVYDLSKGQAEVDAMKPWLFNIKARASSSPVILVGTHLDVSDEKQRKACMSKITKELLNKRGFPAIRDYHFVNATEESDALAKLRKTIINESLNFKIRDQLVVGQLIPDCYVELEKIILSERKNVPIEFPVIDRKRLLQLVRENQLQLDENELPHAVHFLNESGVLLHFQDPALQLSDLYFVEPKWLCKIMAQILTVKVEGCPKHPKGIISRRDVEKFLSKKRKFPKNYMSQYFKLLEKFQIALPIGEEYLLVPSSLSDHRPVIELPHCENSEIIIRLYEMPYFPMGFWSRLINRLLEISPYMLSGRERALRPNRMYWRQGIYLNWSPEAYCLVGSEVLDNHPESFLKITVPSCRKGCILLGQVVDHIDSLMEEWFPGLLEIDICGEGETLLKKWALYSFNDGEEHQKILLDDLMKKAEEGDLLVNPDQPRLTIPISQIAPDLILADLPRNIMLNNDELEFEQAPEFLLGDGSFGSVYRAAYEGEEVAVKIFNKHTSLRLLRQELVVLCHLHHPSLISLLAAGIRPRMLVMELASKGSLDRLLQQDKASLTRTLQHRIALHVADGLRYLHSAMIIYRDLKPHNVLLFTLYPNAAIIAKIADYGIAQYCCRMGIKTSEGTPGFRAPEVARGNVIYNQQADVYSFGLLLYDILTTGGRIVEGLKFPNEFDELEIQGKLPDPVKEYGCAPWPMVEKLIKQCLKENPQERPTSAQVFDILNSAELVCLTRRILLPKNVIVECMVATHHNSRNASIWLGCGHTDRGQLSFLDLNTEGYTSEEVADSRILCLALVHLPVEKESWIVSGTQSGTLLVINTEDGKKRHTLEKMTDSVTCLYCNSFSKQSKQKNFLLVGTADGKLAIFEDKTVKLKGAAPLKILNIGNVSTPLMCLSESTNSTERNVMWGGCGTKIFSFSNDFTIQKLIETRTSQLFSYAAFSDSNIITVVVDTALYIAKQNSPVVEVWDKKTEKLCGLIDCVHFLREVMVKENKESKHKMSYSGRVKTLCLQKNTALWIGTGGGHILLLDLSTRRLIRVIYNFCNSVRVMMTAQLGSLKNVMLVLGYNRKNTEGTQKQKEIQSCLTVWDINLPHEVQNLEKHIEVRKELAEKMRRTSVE

GSK3 = assay: Kinase specificity, GSK3; assay type: biochemical; conditions: 100 μM ATP
LRRK2 = LRRK2 (Homo sapiens, UniProt Q5S007); conditions: Covy and Giasson 2009; Anand et al. 2009; cited from earlier work
Chain of LRRK2 (Q5S007 whole entry): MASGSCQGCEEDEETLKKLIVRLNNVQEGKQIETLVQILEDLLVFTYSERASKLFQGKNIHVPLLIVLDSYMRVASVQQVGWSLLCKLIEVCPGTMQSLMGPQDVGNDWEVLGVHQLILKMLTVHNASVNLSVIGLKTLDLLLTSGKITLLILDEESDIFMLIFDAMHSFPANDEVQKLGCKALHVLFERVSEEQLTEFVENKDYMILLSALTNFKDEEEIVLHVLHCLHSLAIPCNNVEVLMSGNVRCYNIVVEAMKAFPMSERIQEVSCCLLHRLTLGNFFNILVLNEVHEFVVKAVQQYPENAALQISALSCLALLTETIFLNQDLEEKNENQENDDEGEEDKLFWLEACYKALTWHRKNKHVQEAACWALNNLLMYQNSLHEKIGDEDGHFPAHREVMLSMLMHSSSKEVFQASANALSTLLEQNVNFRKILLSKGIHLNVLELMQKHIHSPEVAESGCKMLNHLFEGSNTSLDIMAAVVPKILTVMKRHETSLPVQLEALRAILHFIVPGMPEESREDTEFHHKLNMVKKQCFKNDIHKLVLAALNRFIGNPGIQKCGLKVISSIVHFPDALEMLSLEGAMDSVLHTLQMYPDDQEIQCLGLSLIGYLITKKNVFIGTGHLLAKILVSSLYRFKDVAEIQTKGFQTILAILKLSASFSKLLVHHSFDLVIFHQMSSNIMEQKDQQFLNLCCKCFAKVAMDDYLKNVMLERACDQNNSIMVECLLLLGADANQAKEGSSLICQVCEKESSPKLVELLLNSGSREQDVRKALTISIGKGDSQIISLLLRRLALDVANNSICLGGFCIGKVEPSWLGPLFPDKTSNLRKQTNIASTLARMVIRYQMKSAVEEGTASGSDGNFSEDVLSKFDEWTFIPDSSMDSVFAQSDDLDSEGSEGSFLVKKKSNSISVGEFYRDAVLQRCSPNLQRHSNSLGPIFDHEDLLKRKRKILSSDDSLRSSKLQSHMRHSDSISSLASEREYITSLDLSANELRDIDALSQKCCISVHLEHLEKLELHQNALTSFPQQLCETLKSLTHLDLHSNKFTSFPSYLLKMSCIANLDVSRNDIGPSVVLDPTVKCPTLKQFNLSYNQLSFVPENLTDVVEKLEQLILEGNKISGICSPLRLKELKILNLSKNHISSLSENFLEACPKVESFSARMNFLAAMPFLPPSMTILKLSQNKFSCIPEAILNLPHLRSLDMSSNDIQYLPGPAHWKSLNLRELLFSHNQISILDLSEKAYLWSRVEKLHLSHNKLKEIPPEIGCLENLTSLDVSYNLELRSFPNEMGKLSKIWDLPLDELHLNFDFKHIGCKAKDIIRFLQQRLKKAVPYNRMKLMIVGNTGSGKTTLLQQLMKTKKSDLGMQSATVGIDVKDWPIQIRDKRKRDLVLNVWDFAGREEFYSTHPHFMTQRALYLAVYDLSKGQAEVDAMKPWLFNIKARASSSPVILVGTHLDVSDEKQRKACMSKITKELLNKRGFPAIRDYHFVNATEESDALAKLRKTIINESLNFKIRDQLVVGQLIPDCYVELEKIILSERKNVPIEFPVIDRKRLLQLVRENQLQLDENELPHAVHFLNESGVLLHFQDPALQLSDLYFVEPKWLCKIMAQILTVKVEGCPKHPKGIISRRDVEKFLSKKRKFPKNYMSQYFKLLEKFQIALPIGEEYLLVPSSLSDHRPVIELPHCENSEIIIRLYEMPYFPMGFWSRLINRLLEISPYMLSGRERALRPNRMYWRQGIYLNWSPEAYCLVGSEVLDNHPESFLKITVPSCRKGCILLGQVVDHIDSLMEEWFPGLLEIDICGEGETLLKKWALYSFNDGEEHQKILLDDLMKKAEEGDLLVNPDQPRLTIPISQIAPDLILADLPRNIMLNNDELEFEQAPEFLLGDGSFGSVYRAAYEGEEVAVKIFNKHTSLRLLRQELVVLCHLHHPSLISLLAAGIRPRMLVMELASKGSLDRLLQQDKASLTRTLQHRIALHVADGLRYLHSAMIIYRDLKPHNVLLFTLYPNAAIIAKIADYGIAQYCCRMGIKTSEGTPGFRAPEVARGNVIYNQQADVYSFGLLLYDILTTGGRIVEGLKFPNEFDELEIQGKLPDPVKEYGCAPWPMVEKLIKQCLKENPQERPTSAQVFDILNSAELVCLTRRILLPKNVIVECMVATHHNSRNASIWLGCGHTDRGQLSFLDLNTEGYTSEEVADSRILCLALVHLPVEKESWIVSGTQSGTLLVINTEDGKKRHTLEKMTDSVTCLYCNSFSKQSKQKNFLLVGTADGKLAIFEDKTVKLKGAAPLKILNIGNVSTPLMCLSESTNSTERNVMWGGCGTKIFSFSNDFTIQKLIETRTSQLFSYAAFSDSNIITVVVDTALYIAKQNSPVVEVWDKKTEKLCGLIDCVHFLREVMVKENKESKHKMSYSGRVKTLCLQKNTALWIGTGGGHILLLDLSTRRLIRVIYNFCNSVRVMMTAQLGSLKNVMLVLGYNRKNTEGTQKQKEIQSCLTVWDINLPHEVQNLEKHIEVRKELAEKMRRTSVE

PKA = assay: Kinase specificity, PKA; assay type: biochemical; conditions: 100 μM ATP
PKC = assay: Kinase specificity, PKC; assay type: biochemical; conditions: 100 μM ATP
[1] = tested on: R1441C LRRK2 transgenic C. elegans; assay: Food-sensing (slowing) response in LRRK2 transgenic C. elegans; assay type: in vivo; conditions: 2 mM added to the assay, FIG. 5 inset
Description: Dopaminergic neurons in C. elegans are involved in food sensing behavior such that in the absence of food worms move more rapidly, as assessed by determining their bending frequency on an agar plate not supplied with food. In an established assay the animals are then exposed to food, and the difference in motility is recorded in the form of bending frequency [Sawin et al., Neuron 26, 619-631 (2000)]. […] In approximate synchrony with the dopaminergic neurodegeneration this slowing response is essentially eliminated after 4 days. […] The slowing response can be reconstituted to a substantial degree by supplementation with dopamine, confirming that the phenotype is due to loss of dopaminergic input (FIG. 5).
The clear-cut functional phenotype of this model can be used to determine the efficacy of LRRK2 kinase inhibitors and the accurate determination of their potency in a biological context. […] The potency is expressed as the half-maximal restoration of the slowing response. […]
The functional consequence of dopaminergic neurodegeneration was assayed using the food-sensing response resulting in a slowing of motility after food exposure as assessed by the frequency of body bending within 20 second intervals in groups of 10 animals [Sawin et al., Neuron 26, 619-631 (2000)]. […]

[2] = Lethal plasma concentration after single dosing; assay type: in vivo; conditions: read-out: LC50 as plasma concentration

Chain of Cdk1 (P06493 whole entry, species assumed): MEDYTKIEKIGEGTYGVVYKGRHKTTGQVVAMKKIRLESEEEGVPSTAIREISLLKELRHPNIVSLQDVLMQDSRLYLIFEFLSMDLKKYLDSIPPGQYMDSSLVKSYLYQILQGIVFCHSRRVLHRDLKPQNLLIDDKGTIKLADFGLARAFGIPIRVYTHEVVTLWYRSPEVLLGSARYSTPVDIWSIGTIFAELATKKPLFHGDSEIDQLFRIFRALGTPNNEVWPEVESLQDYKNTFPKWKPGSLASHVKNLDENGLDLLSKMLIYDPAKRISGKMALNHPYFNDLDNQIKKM
Chain of Cdk1 (P14635 whole entry partner, species assumed): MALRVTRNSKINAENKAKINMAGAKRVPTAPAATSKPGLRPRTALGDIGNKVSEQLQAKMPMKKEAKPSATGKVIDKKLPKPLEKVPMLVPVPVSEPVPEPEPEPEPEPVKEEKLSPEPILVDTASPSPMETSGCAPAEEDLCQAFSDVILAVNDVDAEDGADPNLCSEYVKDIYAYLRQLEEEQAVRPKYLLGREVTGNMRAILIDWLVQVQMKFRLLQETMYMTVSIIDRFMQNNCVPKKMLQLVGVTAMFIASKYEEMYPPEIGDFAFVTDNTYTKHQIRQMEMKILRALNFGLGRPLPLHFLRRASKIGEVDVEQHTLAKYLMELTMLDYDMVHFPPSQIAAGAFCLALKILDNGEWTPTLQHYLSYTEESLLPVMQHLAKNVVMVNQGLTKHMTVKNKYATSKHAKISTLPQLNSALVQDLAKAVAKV
Chain of ERK2 (P28482 whole entry, species assumed, the tested form may be a part): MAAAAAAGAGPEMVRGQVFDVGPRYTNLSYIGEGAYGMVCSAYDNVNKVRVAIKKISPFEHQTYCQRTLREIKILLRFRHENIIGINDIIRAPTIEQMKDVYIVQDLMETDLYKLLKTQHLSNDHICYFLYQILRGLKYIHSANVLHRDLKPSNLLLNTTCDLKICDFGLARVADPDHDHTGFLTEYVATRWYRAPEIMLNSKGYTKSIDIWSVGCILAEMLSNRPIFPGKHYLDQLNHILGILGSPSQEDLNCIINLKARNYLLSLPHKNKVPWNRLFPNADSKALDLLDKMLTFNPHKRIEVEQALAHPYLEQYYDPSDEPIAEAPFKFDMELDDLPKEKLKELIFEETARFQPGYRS

Which IC50 (Cdk1) does the source give for `COC(=O)[C@@]1(N)CC2OC1(C)n1c3ccccc3c3c4c(c5c6ccccc6n2c5c31)C(=O)NC4` (stereo partly drawn) [Compound 5] here?
The IC50 was 260 nM.

And the IC50 (ERK2)?
Its IC50 is 350 nM.

What about the IC50 (wildtype human LRRK2; 100 μM ATP, read-out: LRRK2) of the same compound?
The IC50 was 1 nM.

What about the IC50 (wildtype human LRRK2; 100 microM ATP, read-out: LRRK2 inhibitory potency (essentially receptor-limited)) of the same compound?
The IC50 was ≤ 1 nM.

Which IC50 (wildtype human LRRK2; 100 μM ATP, read-out: LRRK2) does the source give for `CC12OC(C[C@]1(N)CO)n1c3ccccc3c3c4c(c5c6ccccc6n2c5c31)CNC4=O` (stereo partly drawn) [Compound 13] here?
Its IC50 is 1 nM.

Which IC50 (wildtype human LRRK2; 100 μM ATP, read-out: LRRK2) does the source give for `CNC(=O)[C@@]1(N)CC2OC1(C)n1c3ccccc3c3c4c(c5c6cc(Br)ccc6n2c5c31)C(=O)NC4` (stereo partly drawn) [Compound 14] here?
Its IC50 is 1.2 nM.

Which IC50 (wildtype human LRRK2; 100 μM ATP, read-out: LRRK2) does the source give for `CNC(=O)C1(N)CC2OC1(C)n1c3ccc(Br)cc3c3c4c(c5c6cc(Br)ccc6n2c5c31)C(=O)NC4` (stereo not drawn) [Compound 15] here?
The IC50 was 1.5 nM.

Which results are given for `COC(=O)[C@@]1(O)C[C@H]2O[C@]1(C)n1c3ccccc3c3c4c(c5c6ccccc6n2c5c31)C(=O)NC4` [Compound K252a, K252a, reference compound]?
IC50 (GSK3): > 10000 nM; Activity as inhibitor of LRRK2 (LRRK2): active as inhibitors of LRRK2; IC50 (Cdk1): 310 nM; IC50 (ERK2): 120 nM; IC50 (PKA): 3400 nM; IC50 (PKC): 5000 nM; IC50 (wildtype human LRRK2): 220 nM; Potency for LRRK2 inhibition lower than that of compound 5 (wildtype human LRRK2; direct comparison): more than 2 orders of magnitude

With `Cl.NCCc1ccc(O)c(O)c1` [dopamine hydrochloride, reference compound] as the compound, how does the “Loss of the food-sensing response in impaired LRRK2 worms” value [1] read?
The value was “partially rescued”.

Which results are given for `CN[C@@H]1C[C@H]2O[C@@](C)([C@@H]1OC)n1c3ccccc3c3c4c(c5c6ccccc6n2c5c31)C(=O)NC4` [staurosporine]?
Activity as inhibitor of LRRK2 (LRRK2): active as inhibitors of LRRK2; LC50 [2]: 200 to 300 nM
